What was measured:
[1] = system: human prostatic carcinoma cells PC-3; assay: Inhibitory action against the growth of subcutaneously implanted tumor (Test Example 2, subcutaneous dosing); type: in vivo, human; BALB/c nu/nu mouse; details: 80 mg/kg s.c., Mon/Wed/Fri for 3 weeks; for Tumor volume gain: 46th day after transplantation, mean ± SD; for T/C: 46th day, ratio of tumor volume gain treated/control
Procedure: Inhibitory action of the test compounds against the growth of subcutaneously implanted tumor
The human prostatic carcinoma cells PC-3, which are maintained in vitro, were harvested using 0.05% trypsin, washed with Ham's F12K medium containing 10% serum, and then suspended in PBS (phosphate-buffered saline) at a concentration of 3×10^7 cells/ml. The aliquot of 100 μl was transplanted into the right central flank region of a 7-week old, male BALB/c nu/nu mouse using a syringe with a 25 gauge needle. After the size of the resulting tumor mass was measured on the 25th day after the transplantation, the mice were divided into groups of five animals (the average tumor volume of each group was between […]), and then the treatment with test compounds was commenced. Tumor volume was calculated according to the formulation: tumor volume =0.5×(the longest diameter)×(the shortest diameter)^2 after two-dimensional measurement of the tumor mass by a caliper. The test compounds were suspended in 0.5% methylcellulose/physiological saline, and subcutaneously injected at a volume of 10 μl/g body weight.
Thereafter the test compounds were administered every Monday, Wednesday and Friday for 3 weeks. The inhibitory action was assessed on the 46th day after the transplanation by the ratio of tumor volume gain of treated groups to that of the control group(T/C %). The dosage of the test compounds was expressed as mg/kg/shot.

[2] = system: human prostatic carcinoma cells PC-3; assay: Inhibitory action against the growth of subcutaneously implanted tumor (Test Example 3, oral dosing); type: in vivo, human; BALB/c nu/nu mouse; details: 75 mg/kg p.o., once a day for 3 weeks
Procedure: Inhibitory action of the test compound against the growth of subcutaneously implanted tumor
The human prostatic carcinoma cells PC-3, which are maintained in vitro, were harvested using 0.05% trypsin, washed with Ham's F12K medium containing 10% serum, and then suspended in PBS (phosphate-buffered saline) at a concentration of 3×10^7 cells/ml. The aliquot of 100 μl was transplanted into the right central flank region of a 7-week old, male BALB/c nu/nu mouse using a syringe with a 25 guage needle. After the size of the resulting tumor mass was measured on the 32nd day after the transplantation, the mice were divided into groups of five animals (the average tumor volume of each group was between 273 and 293 mm^3), and then the treatment with test compound was commenced. Tumor volume was calculated according to the formulation: tumor volume =0.5×(the longest diameter)×(the shortest diameter)2 after two-dimensional measurement of the tumor mass by a caliper. The test compound was suspended in 0.5% methylcellulose/physiological saline, and orally administered at a volume of 10 μl/g body weight. […] The inhibitory action was assessed on the 53rd day after the transplanation, the first day after the last administration, by the ratio of tumor volume gain of treated groups to that of the control group (T/C %). The dosage of the test compounds was expressed as mg/kg/shot.

[3] = system: Prostate carcinoma cell line PC-3; assay: In vitro prostate carcinoma cell proliferation inhibition assay (MTT); type: cell-based, human; details: Homo sapiens, 72 h; PC-3, 3 days incubation, MTT; read-out: IC50 PC-3
Procedure: In vitro prostate carcinoma cell proliferation inhibition assay
Prostate carcinoma cell line PC-3 cells were suspended in Ham's F-12K medium (Flow Laboratories or Dainippon Pharmaceutical Co,. Ltd) supplemented with 10% fetal calf serum, and seeded in a 96-well microtiter plate (5000 cells/50 or 75 μl/well). The plate was then incubated in a 5% CO2 incubator at 37° C. On the following day, a 3-fold dilution series with the medium with serum of the test compound in N,N-dimethylformamide (DMF) (50 or 25 μl/well) were added (final volume […]) and the plate was incubated for another 3 days. Following addition of a thiazolyl-tetrazolium (MTT) solution, absorbance based on the viable cell number was determined "Tada et al., Journal of Immunological Methods, 93, 157 (1986)". With the estimated cell number in the control group to which the test compound solution was not added being taken as 100%, the percentage of the estimated cell number in each test group was determined and the concentration (IC50 value) of the test compound which was required for 50% inhibition of the estimated viable cell number in the control group was calculated.

| Structure (SMILES) | Tumor volume gain [1] | T/C [1] | Tumor volume gain ([2]; 53rd day after transplantation, mean ± SD) | T/C ([2]; 53rd day, ratio of tumor volume gain treated/control) | IC50 [3] |
| --- | --- | --- | --- | --- | --- |
| Cn1c(SCc2ccc(C(=O)c3ccc(Cl)cc3)cc2)nc2ccsc2c1=O [Example 7, 2-[4-(4-Chlorobenzoyl)benzyl]thio-3-methylthieno-[3,2-d]pyrimidin-4(3H)-one] | 445 ± 110 mm^3 | 49% | – | – | – |
| Cc1cccc2nc(SCc3ccc(C(=O)c4ccc(Cl)cc4)cc3)n(C)c(=O)c12 [Example 42, 2-[4-(4-Chlorobenzoyl)benzylthio]-3,5-dimethyl-quinazolin-4-one] | 329 ± 252 mm^3 | 36% | – | – | – |
| O=C(c1ccc(Cl)cc1)c1ccc(Cn2ccn3c(=O)c4c(nc23)CCCC4)cc1 [Example 189, 1-[4-(4-Chlorobenzoyl)benzyl]-6,7,8,9-tetrahydroimidazo[2,1-b]quinazolin-5(1H)-one] | – | – | 697 ± 199 mm^3 | 53% | 1.9 nM |

— patent US5753664A, “Heterocyclic compounds, their production and use” (Takeda Chemical Industries, Ltd., priority 1995, dated 1998)
